Patent US12162836B2, “N-acyl-{4-[(4-aryl-phenyl)sulfonylmethyl]piperidine} compounds and their therapeutic use” (Modern Biosciences Limited, priority 2019, dated 2024)

Experiments:
hERG = hERG (Homo sapiens (Human), UniProt Q12809); test: hERG Ion Channel binding assay (3H astemizole displacement); settings: human, membranes of HEK293 cells stably expressing hERG, pH 7.4, probe 3H astemizole (1.5 nM); Tested at 25 μM; displacement of 3H astemizole, hERG-HEK293 membranes
Summary of the method: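 Membranes from stably transfected hERG-HEK293 cells incubated with 1.5 nM ³H-astemizole ± test compound in HEPES buffer pH 7.4 (0.1% BSA, 5 mM KCl, 130 mM NaCl) at 25° C for 60 min. Bound ligand measured by filtration and scintillation counting; reported as % displacement (0% none, 100% complete).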

[1] = tested on: collagen-induced arthritis in DBA/1j mice; test: Mouse Collagen-Induced Arthritis; type: in vivo; settings: 10 mg/kg/day, once daily for 14 days, oral gavage; arthritic index vs control
Description: Seven- to eight-week-old male DBA/1j mice were used for all procedures. Animals were housed in groups of 10, and were maintained at 21° C.±2° C. on a 12-hour light/dark cycle with food and water ad libitum. Complete Freund's adjuvant (CFA) was prepared by emulsifying bovine type II collagen at 4 mg/mL with a 4 mg/mL suspension of Mycobacterium tuberculosis H37Ra in Incomplete Freund's Adjuvant (IFA) (0.85 mL paraffin oil and 0.15 mL mannide monooleate) in a 1:1 (v/v) ratio. All mice were immunised subcutaneously with 200 μg of bovine type II collagen in CFA. 21 days later, all mice were immunised subcutaneously with 100 μg of bovine type II collagen in IFA. The mice started to develop signs and symptoms of arthritis following the ‘booster’ immunisation.
For macroscopic assessment of arthritis, the following signs were monitored in each paw of each mouse three times per week and summed to generate the Arthritic Index (A1) (the maximum A1 for one animal is 16): • 0=no visible effects of arthritis. • 1=oedema and/or erythema of 1 digit. • 2=oedema and/or erythema of 2 digits. • 3=oedema and/or erythema of more than 2 digits. • 4=severe arthritis of entire paw and digits.
Animals were sorted into treatment groups with a mean arthritic index of 2.5 and then dosed once daily for 14 days with compound: by oral gavage for test compounds, or by subcutaneous injection at a dose of 10 mg/kg for the positive control, etanercept. After completion of the experiment, the mice were sacrificed.
The data were analysed by generating an average of the arthritic index across each treatment group. The mean arthritic index was then compared to the arthritic index of control (untreated) animals using the following formula to generate a percentage inhibition of disease.

CYP2D6 = CYP2D6 (Homo sapiens (Human), UniProt P10635); test: Human Cytochrome P450 Inhibition Assay (Bactosomes); type: in vitro ADME; settings: recombinant Bactosomes, 10 minutes
Description: (§1) The ability of test compounds to inhibit five of the most relevant cytochrome P450 enzymes was measured by determination of the activity of cytochrome P450 enzymes in recombinant cytochrome preparations, called Bactosomes (Cypex Ltd, Dundee, Scotland UK DD2 1 NH), in the presence of a specific probe substrate. Bactosomes are a highly efficient and cost-effective source of recombinant CYP450s which have a higher specific activity of enzyme compared to other sources, such as liver microsomes. […] The following CYP450 isoforms were assayed: CYP1A2, CYP2C9, CYP2C19, CYP2D6 and CYP3A4. The study of CYP450 inhibition potential in Bactosomes is accepted as a valuable model permitting rapid prediction of potential drug-drug interactions in vivo (see, e.g., Weaver et al., 2003).
(§2) Bactosomes were obtained from a commercial source (Cypex, Scotland, UK). Test compounds were incubated with Bactosomes at 6 concentrations. Samples were incubated for 10 minutes, after which the reaction was stopped and the samples analysed by LC-MS/MS Multiple Reaction Monitoring (MRM) for the presence/amount of substrate probe.
(§3) CYP450 enzymes (final protein 75 pmol/mL for CYP1A2; 12.5 pmol/mL for CYP2C19; and 25 pmol/mL for CYP2C9, 2D6 and 3A4), 0.1 M phosphate buffer pH 7.4, probe and test compound (final concentration 50, 15.8, 5, 1.58, 0.5 and 0.158 μM; diluted from 10 mM stock solution to give a final DMSO concentration of 1%) were pre-incubated at 37° C. for 5 minutes. The reaction was initiated by the addition of 20 μL of 10 mM NADPH in phosphate buffer. The final incubation volume was 200 μL. The following control inhibitors were used for each CYP450 inhibition assay: CYP1A2: α-naphthoflavone; CYP2C9: sulfaphenazole; CYP2C19: tranylcypromine; CYP2D6: quinidine; CYP3A4: ketoconazole.
(§4) Each compound was incubated for 10 minutes at 37° C. The reactions were stopped by the addition of methanol (final composition 1:1, aqueous: methanol). The incubation plates were shaken, chilled at […] for 2 hours, and centrifuged at 3500 rpm for 15 minutes at 4° C. to precipitate the protein.

CYP3A4 = CYP3A4 (Homo sapiens (Human), UniProt P08684); test: as above; type: in vitro ADME; settings: recombinant Bactosomes, 10 minutes
Description: as §1, §2, §3, §4

CYP2C9 = CYP2C9 (Homo sapiens (Human), UniProt P11712); test: as above; type: in vitro ADME; settings: recombinant Bactosomes, 10 minutes
Description: as §1, §2, §3, §4

CYP1A2 = CYP1A2 (Homo sapiens (Human), UniProt P05177); test: as above; type: in vitro ADME; settings: recombinant Bactosomes, 10 minutes; read-out: IC50 CYP1A2
Description: as §1, §2, §3, §4

CYP2C19 = CYP2C19 (Homo sapiens (Human), UniProt P33261); test: as above; type: in vitro ADME; settings: recombinant Bactosomes, 10 minutes
Description: as §1, §2, §3, §4

Sequence of CYP2C9 (P11712 whole entry): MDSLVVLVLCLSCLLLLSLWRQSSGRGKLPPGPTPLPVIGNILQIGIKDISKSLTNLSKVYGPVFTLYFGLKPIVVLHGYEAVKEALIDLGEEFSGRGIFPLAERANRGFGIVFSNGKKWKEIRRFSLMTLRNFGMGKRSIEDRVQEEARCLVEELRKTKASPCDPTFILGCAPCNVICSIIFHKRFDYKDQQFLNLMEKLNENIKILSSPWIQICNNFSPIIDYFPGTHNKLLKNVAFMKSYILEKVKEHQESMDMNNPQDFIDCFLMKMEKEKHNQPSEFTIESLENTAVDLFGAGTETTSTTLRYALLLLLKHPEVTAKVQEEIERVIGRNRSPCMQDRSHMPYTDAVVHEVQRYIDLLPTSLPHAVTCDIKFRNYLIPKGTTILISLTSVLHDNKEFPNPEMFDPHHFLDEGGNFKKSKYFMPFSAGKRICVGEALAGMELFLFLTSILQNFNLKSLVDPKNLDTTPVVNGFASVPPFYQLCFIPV
Sequence of hERG (Q12809 whole entry): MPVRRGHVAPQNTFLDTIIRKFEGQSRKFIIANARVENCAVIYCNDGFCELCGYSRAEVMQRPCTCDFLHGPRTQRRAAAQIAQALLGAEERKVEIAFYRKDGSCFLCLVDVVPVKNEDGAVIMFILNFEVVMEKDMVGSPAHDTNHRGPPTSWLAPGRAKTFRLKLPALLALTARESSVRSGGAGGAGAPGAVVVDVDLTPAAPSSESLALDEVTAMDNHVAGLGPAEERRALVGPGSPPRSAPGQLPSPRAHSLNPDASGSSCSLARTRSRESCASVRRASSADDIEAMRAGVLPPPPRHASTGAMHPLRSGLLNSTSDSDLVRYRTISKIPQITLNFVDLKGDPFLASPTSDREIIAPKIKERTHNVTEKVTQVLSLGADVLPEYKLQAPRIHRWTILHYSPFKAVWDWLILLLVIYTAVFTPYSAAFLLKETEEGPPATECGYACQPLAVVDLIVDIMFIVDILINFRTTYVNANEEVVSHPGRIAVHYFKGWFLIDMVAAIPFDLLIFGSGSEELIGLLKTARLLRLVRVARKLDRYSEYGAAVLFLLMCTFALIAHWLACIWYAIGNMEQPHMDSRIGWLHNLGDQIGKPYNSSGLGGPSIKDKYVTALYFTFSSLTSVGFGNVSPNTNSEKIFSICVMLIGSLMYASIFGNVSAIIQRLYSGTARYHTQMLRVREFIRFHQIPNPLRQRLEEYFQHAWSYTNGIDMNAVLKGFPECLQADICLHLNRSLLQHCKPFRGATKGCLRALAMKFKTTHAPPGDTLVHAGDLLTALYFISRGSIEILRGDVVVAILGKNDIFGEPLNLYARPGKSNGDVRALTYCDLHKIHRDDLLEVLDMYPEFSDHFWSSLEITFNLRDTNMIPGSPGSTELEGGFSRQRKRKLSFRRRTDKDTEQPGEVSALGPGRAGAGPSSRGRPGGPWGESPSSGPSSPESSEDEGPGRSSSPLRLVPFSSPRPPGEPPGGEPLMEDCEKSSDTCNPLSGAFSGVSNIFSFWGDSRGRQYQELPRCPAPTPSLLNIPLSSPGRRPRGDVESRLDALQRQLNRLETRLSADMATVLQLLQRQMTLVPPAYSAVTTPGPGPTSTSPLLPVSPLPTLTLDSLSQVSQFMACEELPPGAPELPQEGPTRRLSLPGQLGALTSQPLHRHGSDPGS
Sequence of CYP2C19 (P33261 whole entry): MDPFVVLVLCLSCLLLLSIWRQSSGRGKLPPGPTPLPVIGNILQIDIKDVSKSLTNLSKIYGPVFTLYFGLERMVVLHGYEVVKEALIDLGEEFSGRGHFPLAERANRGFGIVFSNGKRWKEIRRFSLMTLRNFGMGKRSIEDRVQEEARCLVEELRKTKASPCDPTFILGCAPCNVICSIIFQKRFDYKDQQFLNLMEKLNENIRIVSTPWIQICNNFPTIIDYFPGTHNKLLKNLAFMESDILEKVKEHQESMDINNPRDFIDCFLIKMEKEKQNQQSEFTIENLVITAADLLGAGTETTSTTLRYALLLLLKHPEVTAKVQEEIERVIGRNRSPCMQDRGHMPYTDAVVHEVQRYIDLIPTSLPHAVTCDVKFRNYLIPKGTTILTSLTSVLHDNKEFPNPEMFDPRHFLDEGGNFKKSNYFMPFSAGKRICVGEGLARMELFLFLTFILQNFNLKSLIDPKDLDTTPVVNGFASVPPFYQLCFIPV
Sequence of CYP1A2 (P05177 whole entry): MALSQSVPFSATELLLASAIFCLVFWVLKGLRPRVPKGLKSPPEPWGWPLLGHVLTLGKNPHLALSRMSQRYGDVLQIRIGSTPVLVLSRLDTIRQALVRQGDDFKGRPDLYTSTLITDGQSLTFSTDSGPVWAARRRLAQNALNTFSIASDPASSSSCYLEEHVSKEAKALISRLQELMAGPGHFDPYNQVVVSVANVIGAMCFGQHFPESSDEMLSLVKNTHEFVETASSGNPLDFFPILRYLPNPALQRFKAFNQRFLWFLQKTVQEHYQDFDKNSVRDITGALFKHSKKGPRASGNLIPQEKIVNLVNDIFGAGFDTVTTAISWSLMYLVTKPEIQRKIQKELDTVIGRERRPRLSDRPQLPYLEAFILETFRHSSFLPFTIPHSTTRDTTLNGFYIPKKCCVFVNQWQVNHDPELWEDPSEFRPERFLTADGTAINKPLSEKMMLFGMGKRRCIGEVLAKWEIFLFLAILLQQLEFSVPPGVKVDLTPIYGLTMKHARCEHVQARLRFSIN
Sequence of CYP3A4 (P08684 whole entry): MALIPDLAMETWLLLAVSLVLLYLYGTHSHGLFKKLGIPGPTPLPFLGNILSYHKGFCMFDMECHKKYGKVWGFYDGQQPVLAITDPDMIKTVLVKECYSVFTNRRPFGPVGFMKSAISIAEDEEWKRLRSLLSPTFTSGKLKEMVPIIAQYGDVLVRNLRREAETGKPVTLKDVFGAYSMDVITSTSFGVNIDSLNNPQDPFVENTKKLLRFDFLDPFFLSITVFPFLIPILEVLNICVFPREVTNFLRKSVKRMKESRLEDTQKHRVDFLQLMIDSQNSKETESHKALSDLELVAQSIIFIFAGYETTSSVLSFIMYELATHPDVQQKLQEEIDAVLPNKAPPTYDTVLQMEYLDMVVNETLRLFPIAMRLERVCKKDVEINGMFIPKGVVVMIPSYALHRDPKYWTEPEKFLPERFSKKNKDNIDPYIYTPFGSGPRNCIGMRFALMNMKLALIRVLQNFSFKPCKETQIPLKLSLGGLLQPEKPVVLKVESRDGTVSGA
Sequence of CYP2D6 (P10635 whole entry, canonical isoform): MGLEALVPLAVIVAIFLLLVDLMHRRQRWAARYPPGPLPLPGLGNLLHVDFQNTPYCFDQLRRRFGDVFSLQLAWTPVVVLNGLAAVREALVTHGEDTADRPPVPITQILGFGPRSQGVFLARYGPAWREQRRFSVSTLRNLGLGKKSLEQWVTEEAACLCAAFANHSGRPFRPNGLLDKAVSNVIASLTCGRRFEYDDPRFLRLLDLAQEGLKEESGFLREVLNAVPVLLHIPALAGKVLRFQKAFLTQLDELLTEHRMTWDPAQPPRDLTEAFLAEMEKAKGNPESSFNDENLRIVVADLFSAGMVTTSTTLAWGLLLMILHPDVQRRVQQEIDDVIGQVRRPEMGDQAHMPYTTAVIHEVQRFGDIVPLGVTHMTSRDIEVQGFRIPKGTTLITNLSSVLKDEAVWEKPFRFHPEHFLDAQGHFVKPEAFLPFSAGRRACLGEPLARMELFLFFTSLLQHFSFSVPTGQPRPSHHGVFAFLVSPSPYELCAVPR

SMILES: C[C@]1(O)CC[C@H](NS(=O)(=O)c2ccc(-c3ccc(Cl)cc3C#N)cc2)CC1 [HMC-C-01-A, reference compound]
- inhibition at 60 min, 25 µM (hERG): 18%
- % inhibition of disease [1]: 40%
- IC50 (CYP2D6): 16.6 µM
- IC50 (CYP3A4): > 25 µM
- IC50 (CYP2C9): 21 µM
- IC50 (CYP1A2): 25 µM
- IC50 (CYP2C19): > 25 µM
